Measurements: EP4324461A1, “(E)-N-CINAMOYLAMINOALKANOLES WITH MELANOGENESIS INHIBITORY ACTIVITY” (UNIWERSYTET JAGIELLONSKI, priority 2022, dated 2024)

Legend:
Primary melanocytes [1] = assay: Safety, MTT test in primary melanocytes; format: cell-based; conditions: 48 hours
Description: (§1) In order to test the safety of the compounds, both normal human cells were used: keratinocytes (HaCaT), fibroblasts (BJ), primary melanocytes that occur in the skin, as well as human cancer cells: the hepatocarcinoma line HepG2 and the neuroblastoma line SH-SY5Y, which are considered a model for the assessment of hepatocytotoxicity and neurocytotoxicity. The concentrations of the tested compounds in the range of 250-100 µM were used in the studies. The cell lines used in the research were purchased from the American Type Culture Collection (ATCC) and were cultured in media recommended by the manufacturer with the addition of FBS and antibiotics in an incubator ensuring appropriate culture conditions, i.e. humidity, temperature and CO2 concentration. Cells were seeded into multiwell plates and incubated with the test compounds for 48 hours. After this time, MTT and LDH tests were performed to assess cell viability. The MTT test is based on the ability to transform the substrate: [3-(4,5-dimethyl-2-thiazolyl)-2,5-diphenyl-2H-tetrazolium bromide into a colored product only by living cells. The absorbance at 570 nm, which corresponds to the absorption maximum for the product, is directly proportional to cell viability. The LDH test is based on testing the activity of the enzyme lactate dehydrogenase in the culture medium, which is released from cells as a result of damage to the cell membrane, e.g. as a result of cell death. Triton X-100 was used as a positive control in the test. The determination is colorimetric, the substrate is transformed by the released enzyme into a colored product, an increase in absorbance indicates a larger amount of the released enzyme, and thus confirms greater damage to cell membranes. Tables 7 and 8 present the results obtained, which correspond to the viability of cells incubated with the compounds in relation to the viability of cells constituting a control sample, i.e. incubated with the solvent (DMSO) at the same concentration as in the case of the groups tested in the MTT test or in relation to the results obtained for the Triton X-100 positive control in the LDH test. They indicate that the compounds are safe at the concentrations tested. Table 7. Viability of tested normal human cell lines: keratinocytes (HaCaT), fibroblasts (BJ) and primary melanocytes after incubation with the tested compounds - determination in the MTT test (% of solvent control ± SD) and LDH (percentage of positive control - Triton X-100.

[2] = test system: human reconstructed epidermis model EpiDerm™; assay: Extended skin irritation test in reconstructed human epidermis (EpiDerm), 2 and 7 days; format: cell-based; conditions: for Il-1α in culture medium: medium after the first 24 hours
Description: In order to perform extended skin irritation (safety) tests on the reconstructed human epidermis, the exposure time to the tested compounds was extended to 2 and 7 days in the human reconstructed epidermis model EpiDerm™ from MatTek. The epidermis was cultured according to the manufacturer's recommendations, using appropriate multi-well plates and culture media. Solutions of the tested compounds were applied to the epidermis using a positive displacement pipette and distributed using a sterile glass bulb headed Pasteur pipette. […] The epidermis was cultured in an incubator ensuring appropriate humidity, temperature (37 °C) and CO2 concentration (5%). The medium was replaced daily. After an appropriate incubation time, i.e. 2 days or 7 days, the epidermis was rinsed with sterile DPBS and incubated with MTT (Thiazolyl Blue Tetrazolium bromide) solution at 37 °C for 3 hours. After this time, a purple color of formazan was observed, correlated with tissue viability. […] Moreover, in the medium collected after the first 24 hours of EpiDerm epidermis culture, the level of interleukin 1α (Il-1α), which is a mediator of inflammation, was determined. Its level correlates with the unfavorable (irritating) effect of the tested substances on the epidermis. The level of IL-1α was determined using the Cayman Elisa test. […] Table 6. Viability results and results of interleukin 1α concentration measurement in the culture medium in the irritation test in the reconstructed human epidermis model EpiDerm.

Keratinocytes (HaCaT) [3] = assay: Safety, LDH test in keratinocytes; format: cell-based; conditions: 48 hours, positive control Triton X-100
Description: as §1

S. typhimurium TA98 = assay: Ames microplate test, TA98; format: cell-based, Salmonella typhimurium;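 further: reference level is the mean solvent-control yellow wells plus SD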
Description: (§2) Bacteria were grown overnight in growth medium.
(§3) Table 9. Ames microplate test results.

Primary melanocytes [4] = assay: Safety, LDH test in primary melanocytes; format: cell-based; conditions: 48 hours, positive control Triton X-100
Description: as §1

S. typhimurium TA100 = assay: Ames microplate test, TA100; format: cell-based, Salmonella typhimurium;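 further: reference level is the mean solvent-control yellow wells plus SD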
Description: as §2, §3

Keratinocytes (HaCaT) [5] = assay: Safety, MTT test in keratinocytes; format: cell-based; conditions: 48 hours
Description: as §1

[6] = test system: Chinese hamster ovary cell line (CHO-K1); assay: Cytotoxicity in CHO-K1 cells (MTT) before the micronucleus test; format: cell-based; conditions: 24 hours
Description: The assay was performed using a Chinese hamster ovary cell line (CHO-K1) purchased from the American Type Culture Collection (ATCC). The cells were cultured in F-12K medium with the addition of 10% fetal bovine serum (FBS) and antibiotics (streptomycin/penicillin) in an incubator at 37 °C and 5% CO2 concentration). Before the actual micronucleus test, a cytotoxicity assessment was performed to ensure that the actual test was performed only at safe concentrations. For this purpose, cells were transferred to 96-well plates and incubated with the tested compounds for 24 hours. After this time, the MTT test was performed and cell viability was assessed in comparison to the control group (cells cultured with DMSO at the same concentration as in the case of the tested samples).

Hepatocarcinoma HepG2 [7] = assay: Safety, MTT test in HepG2; format: cell-based; conditions: 48 hours
Description: as §1

neuroblastoma SH-SY5Y = assay: Safety, MTT test in SH-SY5Y; format: cell-based; conditions: 48 hours
Description: as §1

Hepatocarcinoma HepG2 [8] = assay: Safety, LDH test in HepG2; format: cell-based; conditions: 48 hours, positive control Triton X-100
Description: as §1

[9] = 2 days, 1.0% in 50% PEG (10 µL)
[10] = 7 days, 1.0% in 50% PEG (10 µL)

Compound: O=C(/C=C/c1ccc(Cl)cc1)NCCCCCO [Compound A-111, (2E)-3-(4-chlorophenyl)-N-(5-hydroxypentyl)prop-2-enamide]
- Primary melanocytes MTT (Primary melanocytes [1]; 100 µM): 104.51±1.19 % of solvent control
- Primary melanocytes MTT (Primary melanocytes [1]; 150 µM): 103.09±1.79 % of solvent control
- Primary melanocytes MTT (Primary melanocytes [1]; 200 µM): 99.25±1.92 % of solvent control
- Primary melanocytes MTT (Primary melanocytes [1]; 250 µM): 93.39±1.60 % of solvent control
- Il-1α in culture medium ([2]; 1.0% in 50% PEG (10 µL)): 15.89 ± .057 pg/mL
- Viability [% of control, mean±SD] ([2]; 2 days, 0.1% in 50% PEG (10 µL)): 88.42±1.25 % of control
- Viability [% of control, mean±SD] ([2]; 2 days, 0.5% in 50% PEG (10 µL)): 92.02±3.47 % of control
- Viability [% of control, mean±SD] [2, 9]: 98.56±11.78 % of control
- Viability [% of control, mean±SD] ([2]; 7 days, 0.1% in 50% PEG (10 µL)): 107.77±3.12 % of control
- Viability [% of control, mean±SD] ([2]; 7 days, 0.5% in 50% PEG (10 µL)): 113.85±4.03 % of control
- Viability [% of control, mean±SD] [2, 10]: 100.41±1.52 % of control
- Keratinocytes (HaCaT) LDH (Keratinocytes (HaCaT) [3]; 100 µM): 4.69 percentage of positive control
- Keratinocytes (HaCaT) LDH (Keratinocytes (HaCaT) [3]; 150 µM): 4.43 percentage of positive control
- Keratinocytes (HaCaT) LDH (Keratinocytes (HaCaT) [3]; 200 µM): 6.49 percentage of positive control
- Keratinocytes (HaCaT) LDH (Keratinocytes (HaCaT) [3]; 250 µM): 13.55 percentage of positive control
- Increase in the number of yellow wells compared to the reference level (S. typhimurium TA98; 0.5 mM, +S9): 1.50
- Increase in the number of yellow wells compared to the reference level (S. typhimurium TA98; 0.5 mM, without S9): 0.7
- Increase in the number of yellow wells compared to the reference level (S. typhimurium TA98; 1.0 mM, +S9): 0.83
- Increase in the number of yellow wells compared to the reference level (S. typhimurium TA98; 1.0 mM, without S9): 0.44
- Increase in the number of yellow wells compared to the reference level (S. typhimurium TA98; 2.0 mM, +S9): 1.50
- Increase in the number of yellow wells compared to the reference level (S. typhimurium TA98; 2.0 mM, without S9): 1.00
- Primary melanocytes LDH (Primary melanocytes [4]; 100 µM): 3.31 percentage of positive control
- Primary melanocytes LDH (Primary melanocytes [4]; 150 µM): 4.95 percentage of positive control
- Primary melanocytes LDH (Primary melanocytes [4]; 200 µM): 13.38 percentage of positive control
- Primary melanocytes LDH (Primary melanocytes [4]; 250 µM): 18.41 percentage of positive control
- Increase in the number of yellow wells compared to the reference level (S. typhimurium TA100; 0.5 mM, +S9): 0.97
- Increase in the number of yellow wells compared to the reference level (S. typhimurium TA100; 0.5 mM, without S9): 0.74
- Increase in the number of yellow wells compared to the reference level (S. typhimurium TA100; 1.0 mM, +S9): 0.47
- Increase in the number of yellow wells compared to the reference level (S. typhimurium TA100; 1.0 mM, without S9): 0.39
- Increase in the number of yellow wells compared to the reference level (S. typhimurium TA100; 2.0 mM, +S9): 0.67
- Increase in the number of yellow wells compared to the reference level (S. typhimurium TA100; 2.0 mM, without S9): 0.42
- Keratinocytes (HaCaT) MTT (Keratinocytes (HaCaT) [5]; 100 µM): 101.68±3.45 % of solvent control
- Keratinocytes (HaCaT) MTT (Keratinocytes (HaCaT) [5]; 150 µM): 101.56±1.94 % of solvent control
- Keratinocytes (HaCaT) MTT (Keratinocytes (HaCaT) [5]; 200 µM): 101.04±2.77 % of solvent control
- Keratinocytes (HaCaT) MTT (Keratinocytes (HaCaT) [5]; 250 µM): 91.57±2.10 % of solvent control
- % Viability [mean] ([6]; 100 µM): 86.1%
- % Viability [mean] ([6]; 150 µM): 95.6%
- % Viability [mean] ([6]; 200 µM): 98.6%
- Hepatocarcinoma HepG2 MTT (Hepatocarcinoma HepG2 [7]; 100 µM): 101.10±6.01 % of solvent control
- Hepatocarcinoma HepG2 MTT (Hepatocarcinoma HepG2 [7]; 150 µM): 97.87±3.27 % of solvent control
- Hepatocarcinoma HepG2 MTT (Hepatocarcinoma HepG2 [7]; 200 µM): 98.19±3.27 % of solvent control
- Hepatocarcinoma HepG2 MTT (Hepatocarcinoma HepG2 [7]; 250 µM): 96.27±2.57 % of solvent control
- Neuroblastoma SH-SYSY MTT (neuroblastoma SH-SY5Y; 100 µM): 100.14±3.22 % of solvent control
- Neuroblastoma SH-SYSY MTT (neuroblastoma SH-SY5Y; 150 µM): 99.32±3.36 % of solvent control
- Neuroblastoma SH-SYSY MTT (neuroblastoma SH-SY5Y; 200 µM): 100.55±2.31 % of solvent control
- Neuroblastoma SH-SYSY MTT (neuroblastoma SH-SY5Y; 250 µM): 99.93±4.36 % of solvent control
- Hepatocarcinoma HepG2 LDH (Hepatocarcinoma HepG2 [8]; 100 µM): 4.90 percentage of positive control
- Hepatocarcinoma HepG2 LDH (Hepatocarcinoma HepG2 [8]; 150 µM): 4.73 percentage of positive control
- Hepatocarcinoma HepG2 LDH (Hepatocarcinoma HepG2 [8]; 200 µM): 5.48 percentage of positive control
- Hepatocarcinoma HepG2 LDH (Hepatocarcinoma HepG2 [8]; 250 µM): 9.75 percentage of positive control

Compound: O=C(/C=C/c1ccccc1)NCCCCCCO [H-425/21, (E)-N-(6-hydroxyhexyl)cinnamic acid amide]
- Il-1α in culture medium ([2]; 1.0% in 50% PEG (10 µL)): 60.29 ± 1.08 pg/mL
- Viability [% of control, mean±SD] [2, 9]: 99.75±15.49 % of control
- Viability [% of control, mean±SD] [2, 10]: 104.01±1.11 % of control
- Increase in the number of yellow wells compared to the reference level (S. typhimurium TA98; 0.5 mM, +S9): 0.42
- Increase in the number of yellow wells compared to the reference level (S. typhimurium TA98; 0.5 mM, without S9): 0.27
- Increase in the number of yellow wells compared to the reference level (S. typhimurium TA98; 1.0 mM, +S9): 0.42
- Increase in the number of yellow wells compared to the reference level (S. typhimurium TA98; 1.0 mM, without S9): 0.54
- Increase in the number of yellow wells compared to the reference level (S. typhimurium TA98; 2.0 mM, +S9): 0.63
- Increase in the number of yellow wells compared to the reference level (S. typhimurium TA98; 2.0 mM, without S9): 0.80
- Increase in the number of yellow wells compared to the reference level (S. typhimurium TA100; 0.5 mM, +S9): 0.50
- Increase in the number of yellow wells compared to the reference level (S. typhimurium TA100; 0.5 mM, without S9): 0.73
- Increase in the number of yellow wells compared to the reference level (S. typhimurium TA100; 1.0 mM, +S9): 0.69
- Increase in the number of yellow wells compared to the reference level (S. typhimurium TA100; 1.0 mM, without S9): 0.80
- Increase in the number of yellow wells compared to the reference level (S. typhimurium TA100; 2.0 mM, +S9): 0.58
- Increase in the number of yellow wells compared to the reference level (S. typhimurium TA100; 2.0 mM, without S9): 0.73
- % Viability [mean] ([6]; 100 µM): 87.6%
- % Viability [mean] ([6]; 150 µM): 83.8%
- % Viability [mean] ([6]; 200 µM): 88.0%
